For one cell line, relative viability results are on record in the supplement of paper PMC10307832.

What all share (experiment): relative viability (nuclei count vs DMSO), 5 days (fraction); higher = more cells survive
Compound in the test “CUDC-101 + OSI-027”: C#Cc1cccc(Nc2ncnc3cc(OC)c(OCCCCCCC(=O)NO)cc23)c1 [CUDC-101] + COc1cccc2cc(-c3nc([C@H]4CC[C@H](C(=O)O)CC4)n4ncnc(N)c34)[nH]c12 [OSI-027] (partner 0.5 µM)
An outline of the steps:
(§1)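 Lung cancer cell lines in 1536-well plates were dosed by pin tool the day after seeding, either with one drug alone or with a fixed anchor-drug dose plus five library-drug doses (not always all listed) in √10 steps. After 5 days, cells were fixed and their nuclei stained in one step (final 0.05% Triton X-100, 1% formaldehyde, 1 ug/ml Hoechst), then counted on 4× images. Relative viability is the nuclei count in treated wells divided by that in vehicle wells. Values are medians of duplicate plates.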

Compound in test [1]: C1=CC=C2C(=C1)N=C(S2)C(C#N)C3=NC(=NC=C3)NCCC4=CN=CC=C4 + Cc1nc(NC(=O)N2CCC[C@H]2C(N)=O)sc1-c1ccnc(C(C)(C)C(F)(F)F)c1 [Alpelisib] (partner 2 µM)
An outline of the steps:
as §1

Compound in the test “NVP-TAE684 + Crizotinib”: COc1cc(N2CCC(N3CCN(C)CC3)CC2)ccc1Nc1ncc(Cl)c(Nc2ccccc2S(=O)(=O)C(C)C)n1 [NVP-TAE684] + C[C@@H](Oc1cc(-c2cnn(C3CCNCC3)c2)cnc1N)c1c(Cl)ccc(F)c1Cl [Crizotinib] (partner 1 µM)
An outline of the steps:
as §1

Compound in the test “Vandetanib + Palbociclib”: COc1cc2/c(=N/c3ccc(Br)cc3F)nc[nH]c2cc1OCC1CCN(C)CC1 [Vandetanib] + CC(=O)c1c(C)c2cnc(Nc3ccc(N4CCNCC4)cn3)nc2n(C2CCCC2)c1=O [Palbociclib] (partner 0.5 µM)
An outline of the steps:
as §1

Consider UMC-11, for which the relative viability with CUDC-101 + OSI-027 (first compound 0.01 µM) was determined as 0.505; in the test with CUDC-101 + OSI-027 (first compound 0.03162 µM), 0.521; with CUDC-101 + OSI-027 (first compound 0.1 µM) it was 0.426; with CUDC-101 + OSI-027 (first compound 0.3162 µM), 0.172; with CUDC-101 + OSI-027 (first compound 1 µM), 0.105; in test [1] (first compound 0.005 µM) it was 0.644. For the same cell line, the relative viability in test [1] (first compound 0.01581 µM) was 1.12; in test [1] (first compound 0.05 µM), 0.924; in test [1] (first compound 0.1581 µM), 1.11; in test [1] (first compound 0.5 µM), 0.78; with NVP-TAE684 + Crizotinib (first compound 0.2 µM) it was 0.45; with NVP-TAE684 + Crizotinib (first compound 0.6325 µM), 0.459. Moreover, the relative viability was determined as 0.145 with NVP-TAE684 + Crizotinib (first compound 2 µM); 0.345 with Vandetanib + Palbociclib (first compound 0.02 µM); 0.336 with Vandetanib + Palbociclib (first compound 0.06325 µM); 0.321 with Vandetanib + Palbociclib (first compound 0.2 µM); 0.348 with Vandetanib + Palbociclib (first compound 0.6325 µM); 0.345 with Vandetanib + Palbociclib (first compound 2 µM).
